Key:
Assay type in all cases: biochemical
KDR = KDR (Homo sapiens, UniProt P35968); experiment: KDR enzyme assay (coupled enzyme assay); conditions: 300 μM ATP, 10 μM poly E4Y, 30 nM KDR, 37° C.; read-out: Ki value, inhibition of KDR
Protocol: Compounds were screened for their ability to inhibit KDR using a standard coupled enzyme assay (Fox et al., Protein Sci., (1998) 7, 2249). Assays were carried out in a mixture of 200 mM HEPES 7.5, 10 mM MgCl2, 25 mM NaCl, 1 mM DTT and 1.5% DMSO. Final substrate concentrations in the assay were 300 μM ATP (Sigma Chemicals) and 10 μM poly E4Y (Sigma). Assays were carried out at 37° C. and 30 nM KDR. Final concentrations of the components of the coupled enzyme system were 2.5 mM phosphoenolpyruvate, 200 μM NADH, 30 μg/ML pyruvate kinase and 10 μg/ml lactate dehydrogenase.
An assay stock buffer solution was prepared containing all of the reagents listed above, with the exception of ATP and the test compound of interest. 177 μl of the stock solution was placed in a 96 well plate followed by addition of 3 μl of 2 mM DMSO stock containing the test compound (final compound concentration 30 μM). The plate was preincubated for about 10 minutes at 37° C. and the reaction initiated by addition of 20 μl of ATP (final concentration 300 μM). Rates of reaction were obtained using a Molecular Devices plate reader (Sunnyvale, Calif.) over a 5 minute read time at 37° C.

JAK3 = molecular target: T1, JAK3 (Homo sapiens, UniProt P52333); experiment: JAK3 inhibition assay (33P incorporation); conditions: 5 uM ATP, 1 uM poly(Glu)4Tyr, 1 nM JAK3, 25C
T1 sequence (P52333 1-1124): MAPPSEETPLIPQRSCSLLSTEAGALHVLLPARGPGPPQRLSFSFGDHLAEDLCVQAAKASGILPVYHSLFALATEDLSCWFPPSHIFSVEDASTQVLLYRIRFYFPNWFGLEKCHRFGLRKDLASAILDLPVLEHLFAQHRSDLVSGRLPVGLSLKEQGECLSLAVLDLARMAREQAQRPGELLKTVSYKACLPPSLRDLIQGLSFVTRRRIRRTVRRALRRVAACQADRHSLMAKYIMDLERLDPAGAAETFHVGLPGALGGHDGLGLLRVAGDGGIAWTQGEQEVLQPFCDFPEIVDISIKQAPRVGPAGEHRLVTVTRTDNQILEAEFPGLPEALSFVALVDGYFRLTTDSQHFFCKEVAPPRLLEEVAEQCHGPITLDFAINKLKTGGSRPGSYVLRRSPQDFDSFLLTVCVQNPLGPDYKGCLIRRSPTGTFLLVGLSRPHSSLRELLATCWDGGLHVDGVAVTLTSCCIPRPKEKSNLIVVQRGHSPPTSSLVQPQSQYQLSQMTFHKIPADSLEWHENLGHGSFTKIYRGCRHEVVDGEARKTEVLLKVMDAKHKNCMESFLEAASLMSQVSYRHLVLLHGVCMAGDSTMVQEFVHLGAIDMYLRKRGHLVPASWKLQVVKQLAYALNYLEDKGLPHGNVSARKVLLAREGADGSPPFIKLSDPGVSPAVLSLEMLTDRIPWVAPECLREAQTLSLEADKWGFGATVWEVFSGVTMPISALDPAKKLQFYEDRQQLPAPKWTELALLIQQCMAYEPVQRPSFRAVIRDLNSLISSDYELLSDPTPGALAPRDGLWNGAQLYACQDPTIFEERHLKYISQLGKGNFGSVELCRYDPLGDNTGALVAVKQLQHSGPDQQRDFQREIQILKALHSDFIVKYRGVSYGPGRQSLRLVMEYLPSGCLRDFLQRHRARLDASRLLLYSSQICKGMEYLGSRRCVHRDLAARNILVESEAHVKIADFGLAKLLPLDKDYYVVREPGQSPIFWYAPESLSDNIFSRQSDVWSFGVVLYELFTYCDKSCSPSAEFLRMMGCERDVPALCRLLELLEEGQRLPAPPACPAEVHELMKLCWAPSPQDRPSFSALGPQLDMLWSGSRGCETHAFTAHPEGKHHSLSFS
Protocol: • kinase buffer: (100 mM HEPES pH 7.4; 1 mM DTT; 10 mM MgCl2; 25 mM NaCl; and 0.01% BSA) • 1 nM JAK3 (enzyme) • 1 uM poly(Glu)4Tyr (substrate) • 5 uM ATP (substrate, 200 uCi/umole ATP) Procedure
To each well of a 96 well polycarbonate plate is added 1.5 ul of a candidate JAK3 inhibitor along with 50 ul of kinase buffer containing 2 uM poly(Glu)4Tyr and 10 uM ATP. This is then mixed and 50 ul of kinase buffer containing 2 nM JAK3 enzyme is added to start the reaction. After 20 minutes at room temperature (25C), the reaction is stopped with 50 ul of 20% trichloroacetic acid (TCA) that also contains 0.4 mM ATP. The entire content of each well is then transferred to a 96 well glass fiber filter plate using a TomTek Cell Harvester. After washing, 60 ul of scintillation fluid is added and 33P incorporation detected on a Perkin Elmer TopCount.

c-Met = c-Met (Homo sapiens, UniProt P08581); experiment: Ki determination for the inhibition of c-Met (coupled enzyme system); conditions: 200 μM ATP, 10 μM polyGluTyr, 80 nM c-Met, 30° C.
Sequence of c-Met (P08581 25-1390): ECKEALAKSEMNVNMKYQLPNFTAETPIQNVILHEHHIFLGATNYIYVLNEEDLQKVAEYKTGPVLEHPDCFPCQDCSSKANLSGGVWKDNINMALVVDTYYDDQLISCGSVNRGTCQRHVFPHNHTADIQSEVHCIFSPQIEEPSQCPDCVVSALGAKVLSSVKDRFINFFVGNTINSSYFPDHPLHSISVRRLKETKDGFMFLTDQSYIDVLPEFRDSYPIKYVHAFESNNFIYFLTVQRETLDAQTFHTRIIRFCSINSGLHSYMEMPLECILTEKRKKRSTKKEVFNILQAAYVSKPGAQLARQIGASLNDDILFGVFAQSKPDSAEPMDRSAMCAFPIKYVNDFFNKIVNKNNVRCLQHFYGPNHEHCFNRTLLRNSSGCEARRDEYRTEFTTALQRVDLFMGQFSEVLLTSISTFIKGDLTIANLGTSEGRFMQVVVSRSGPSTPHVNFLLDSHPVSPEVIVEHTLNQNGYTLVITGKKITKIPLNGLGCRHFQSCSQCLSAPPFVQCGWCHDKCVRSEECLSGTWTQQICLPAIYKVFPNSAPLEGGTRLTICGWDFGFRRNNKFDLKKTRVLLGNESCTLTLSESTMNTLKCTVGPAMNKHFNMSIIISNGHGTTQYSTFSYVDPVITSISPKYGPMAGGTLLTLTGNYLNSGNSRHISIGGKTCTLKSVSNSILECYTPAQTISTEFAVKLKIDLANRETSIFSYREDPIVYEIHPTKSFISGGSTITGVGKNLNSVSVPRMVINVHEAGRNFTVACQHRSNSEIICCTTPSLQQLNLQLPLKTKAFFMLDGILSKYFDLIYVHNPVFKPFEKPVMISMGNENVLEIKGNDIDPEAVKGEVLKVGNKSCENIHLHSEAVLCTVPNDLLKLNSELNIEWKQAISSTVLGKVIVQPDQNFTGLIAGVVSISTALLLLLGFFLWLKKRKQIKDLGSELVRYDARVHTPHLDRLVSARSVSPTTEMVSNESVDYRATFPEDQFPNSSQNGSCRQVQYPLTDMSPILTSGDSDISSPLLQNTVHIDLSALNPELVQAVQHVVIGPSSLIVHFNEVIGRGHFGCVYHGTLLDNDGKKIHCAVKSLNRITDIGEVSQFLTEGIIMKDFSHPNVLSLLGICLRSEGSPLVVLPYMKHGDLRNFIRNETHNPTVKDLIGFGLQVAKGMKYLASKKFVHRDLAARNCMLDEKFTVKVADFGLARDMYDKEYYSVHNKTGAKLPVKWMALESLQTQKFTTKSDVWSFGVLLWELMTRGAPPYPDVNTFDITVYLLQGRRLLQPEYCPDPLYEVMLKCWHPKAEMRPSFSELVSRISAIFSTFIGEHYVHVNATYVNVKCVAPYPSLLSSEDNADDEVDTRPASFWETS
Protocol: Compounds were screened for their ability to inhibit c-Met kinase activity using a standard coupled enzyme system (Fox et al., Protein Sci. 1998, 7, 2249). Reactions were carried out in a solution containing 100 mM HEPES (pH 7.5), 10 mM MgCl2, 25 mM NaCl, 300 μM NADH, 1 mM DTT, and 1.5% DMSO. Final substrate concentrations in the assay were 200 μM ATP (Sigma Chemicals, St Louis, Mo.) and 10 μM polyGluTyr (Sigma Chemical Company, St. Louis). Reactions were carried out at 30° C. and 80 nM c-Met. Final concentrations of the components of the coupled enzyme system were 2.5 mM phosphoenolpyruvate, 300 μM NADH, 30 μg/ml pyruvate kinase and 10 μg/ml lactate dehydrogenase.
An assay stock buffer solution was prepared containing all of the reagents listed above with the exception of ATP and a test compound of the present invention. The assay stock buffer solution (175 μl) was incubated in a 96 well plate with 5 μl of the test compound of the present invention at final concentrations spanning 0.006 μM to 12.5 μM at 30° C. for 10 minutes. […] Rates of reaction were obtained using a Molecular Devices Spectramax plate reader (Sunnyvale, Calif.) over 10 minutes at 30° C. The Ki values were determined from the rate data as a function of inhibitor concentration.

Sequence of KDR (P35968 20-1356): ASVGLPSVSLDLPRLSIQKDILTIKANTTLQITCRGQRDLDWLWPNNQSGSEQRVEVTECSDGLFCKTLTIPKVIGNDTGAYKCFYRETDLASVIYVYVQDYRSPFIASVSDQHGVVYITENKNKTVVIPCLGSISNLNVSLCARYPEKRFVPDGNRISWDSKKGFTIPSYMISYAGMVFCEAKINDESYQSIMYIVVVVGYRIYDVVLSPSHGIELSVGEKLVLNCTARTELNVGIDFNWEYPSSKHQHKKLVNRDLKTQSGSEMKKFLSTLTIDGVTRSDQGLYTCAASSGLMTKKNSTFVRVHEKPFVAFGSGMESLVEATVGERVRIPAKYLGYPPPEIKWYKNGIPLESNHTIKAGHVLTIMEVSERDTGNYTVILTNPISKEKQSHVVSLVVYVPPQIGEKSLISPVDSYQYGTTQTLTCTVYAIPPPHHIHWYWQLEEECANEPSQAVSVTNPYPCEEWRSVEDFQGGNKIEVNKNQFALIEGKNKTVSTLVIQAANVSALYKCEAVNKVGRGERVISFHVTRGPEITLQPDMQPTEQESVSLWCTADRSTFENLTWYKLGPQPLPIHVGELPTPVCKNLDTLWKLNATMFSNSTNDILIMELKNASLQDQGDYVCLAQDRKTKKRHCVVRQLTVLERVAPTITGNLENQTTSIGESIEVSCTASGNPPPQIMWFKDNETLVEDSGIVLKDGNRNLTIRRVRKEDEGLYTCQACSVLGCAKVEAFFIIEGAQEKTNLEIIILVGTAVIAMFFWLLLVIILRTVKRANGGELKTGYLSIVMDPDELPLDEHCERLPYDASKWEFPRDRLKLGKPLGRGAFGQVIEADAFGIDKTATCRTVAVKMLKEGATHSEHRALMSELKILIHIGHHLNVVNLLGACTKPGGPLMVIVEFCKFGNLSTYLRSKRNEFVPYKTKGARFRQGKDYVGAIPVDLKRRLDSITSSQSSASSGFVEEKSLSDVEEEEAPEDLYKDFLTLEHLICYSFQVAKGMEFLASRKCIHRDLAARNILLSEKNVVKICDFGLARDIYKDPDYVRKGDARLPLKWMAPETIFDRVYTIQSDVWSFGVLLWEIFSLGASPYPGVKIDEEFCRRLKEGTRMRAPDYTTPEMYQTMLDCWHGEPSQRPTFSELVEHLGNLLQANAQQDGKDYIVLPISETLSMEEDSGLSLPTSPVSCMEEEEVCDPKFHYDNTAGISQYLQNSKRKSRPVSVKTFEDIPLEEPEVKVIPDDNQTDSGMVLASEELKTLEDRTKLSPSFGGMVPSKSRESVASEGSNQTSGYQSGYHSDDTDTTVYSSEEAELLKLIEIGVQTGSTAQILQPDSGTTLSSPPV

## O=C(c1nc(-c2oncc2-c2cccc(F)c2F)c[nH]1)N1CC=CC1 [Compound I-38, {4-[4-(2,3-Difluoro-phenyl)-isoxazol-5-yl]-1H-imidazol-2-yl}-(2,5-dihydro-pyrrol-1-yl)-methanone]
KDR
  Ki: < 5000 nM
JAK3
  Ki: < 1000 nM
c-Met
  Ki: < 1000 nM

From patent US7169800B2, “Imidazole compositions useful as inhibitors of protein kinases” (Vertex Pharmaceuticals Incorporated, priority 2003, dated 2007)
